For experiment [1], the system named is Brassica juncea. Description: Post-emergence herbicidal activity against Brassica juncea seedlings assessed as plant growth inhibition at 37.5 g ai/ha measured 15 days after compound treatment under greenhouse conditions. The format is functional. The settings on record: 360 h, read-out: GI.
Experiment [2] deals with Chenopodium album. As to the kind of experiment: Post-emergence herbicidal activity against Chenopodium album seedlings assessed as plant growth inhibition at 75 g ai/ha measured 15 days after compound treatment under greenhouse conditions. The following applies: 360 h, read-out: GI. The format is functional.
Experiment [3] relates to Setaria faberi. As to the kind of experiment: Post-emergence herbicidal activity against Setaria faberi (Giant Foxtail) seedlings assessed as plant growth inhibition at 150 g ai/ha measured 15 days after compound treatment under greenhouse conditions. The format is functional. The following applies: 360 h, read-out: GI.
Experiment [4] has as its system Echinochloa crus-galli. Description: Post emergence herbicidal activity against Echinochloa crus-galli (barnyard grass) seedlings assessed as plant growth inhibition at 37.5 g ai/ha measured 15 days after compound treatment under greenhouse conditions. The format is functional. The settings on record: 360 h, read-out: GI.
In experiment [5] the target is T1, Protoporphyrinogen oxidase, chloroplastic (Nicotiana tabacum, UniProt O24163).
T1 sequence (O24163 whole entry): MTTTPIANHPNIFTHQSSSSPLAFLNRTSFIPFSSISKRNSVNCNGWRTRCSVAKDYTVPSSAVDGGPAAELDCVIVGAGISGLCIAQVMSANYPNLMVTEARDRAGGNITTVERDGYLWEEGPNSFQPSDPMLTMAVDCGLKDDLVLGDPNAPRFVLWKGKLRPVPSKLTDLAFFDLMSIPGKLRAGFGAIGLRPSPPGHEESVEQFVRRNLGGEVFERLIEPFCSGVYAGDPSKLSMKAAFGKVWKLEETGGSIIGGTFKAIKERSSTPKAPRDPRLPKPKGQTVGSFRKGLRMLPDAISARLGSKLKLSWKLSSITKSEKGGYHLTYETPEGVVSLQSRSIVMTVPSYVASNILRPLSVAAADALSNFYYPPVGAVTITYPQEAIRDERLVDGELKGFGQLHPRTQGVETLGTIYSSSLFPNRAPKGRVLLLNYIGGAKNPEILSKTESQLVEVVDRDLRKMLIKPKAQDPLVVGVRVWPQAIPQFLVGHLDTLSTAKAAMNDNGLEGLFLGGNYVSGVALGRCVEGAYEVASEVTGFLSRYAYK
Description: Inhibition of Nicotiana tabacum (tobacco) recombinant PPO assessed as protoporphyrin IX formation at room temperature by fluorimetric assay.

For experiment [6], the system named is Echinochloa crus-galli. Description: Post emergence herbicidal activity against Echinochloa crus-galli (barnyard grass) seedlings assessed as plant growth inhibition at 150 g ai/ha measured 15 days after compound treatment under greenhouse conditions. The format is functional. The following applies: 360 h, read-out: GI.
Experiment [7] concerns Brassica juncea. Description: Post-emergence herbicidal activity against Brassica juncea seedlings assessed as plant growth inhibition at 75 g ai/ha measured 15 days after compound treatment under greenhouse conditions. Type of experiment: functional. The settings on record: 360 h, read-out: GI.
The test system of experiment [8] is Amaranthus retroflexus. As to the kind of experiment: Post emergence herbicidal activity against Amaranthus retroflexus seedlings assessed as plant growth inhibition at 37.5 g ai/ha measured 15 days after compound treatment under greenhouse conditions. The format is functional. The following applies: 360 h, read-out: GI.
Experiment [9] concerns Amaranthus retroflexus. As to the kind of experiment: Post emergence herbicidal activity against Amaranthus retroflexus seedlings assessed as plant growth inhibition at 150 g ai/ha measured 15 days after compound treatment under greenhouse conditions. Type of experiment: functional. The settings on record: 360 h, read-out: GI.
Experiment [10] relates to Echinochloa crus-galli. Description: Post emergence herbicidal activity against Echinochloa crus-galli (barnyard grass) seedlings assessed as plant growth inhibition at 75 g ai/ha measured 15 days after compound treatment under greenhouse conditions. Type of experiment: functional. The settings on record: 360 h, read-out: GI.
For experiment [11], the system named is Digitaria sanguinalis. Description: Post-emergence herbicidal activity against Digitaria sanguinalis (hairy crabgrass) seedlings assessed as plant growth inhibition at 37.5 g ai/ha measured 15 days after compound treatment under greenhouse conditions. Type of experiment: functional. The following applies: 360 h, read-out: GI.
For experiment [12], the system named is Setaria faberi. Description: Post-emergence herbicidal activity against Setaria faberi (Giant Foxtail) seedlings assessed as plant growth inhibition at 75 g ai/ha measured 15 days after compound treatment under greenhouse conditions. The format is functional. The following applies: 360 h, read-out: GI.
Experiment [13] concerns Amaranthus retroflexus. As to the kind of experiment: Post emergence herbicidal activity against Amaranthus retroflexus seedlings assessed as plant growth inhibition at 75 g ai/ha measured 15 days after compound treatment under greenhouse conditions. The format is functional. The following applies: 360 h, read-out: GI.
The test system of experiment [14] is Chenopodium album. Description: Post-emergence herbicidal activity against Chenopodium album seedlings assessed as plant growth inhibition at 37.5 g ai/ha measured 15 days after compound treatment under greenhouse conditions. The format is functional. The settings on record: 360 h, read-out: GI.
Experiment [15] concerns Digitaria sanguinalis. Description: Post-emergence herbicidal activity against Digitaria sanguinalis (hairy crabgrass) seedlings assessed as plant growth inhibition at 150 g ai/ha measured 15 days after compound treatment under greenhouse conditions. Type of experiment: functional. The following applies: 360 h, read-out: GI.
Experiment [16] has as its system Setaria faberi. Description: Post-emergence herbicidal activity against Setaria faberi (Giant Foxtail) seedlings assessed as plant growth inhibition at 37.5 g ai/ha measured 15 days after compound treatment under greenhouse conditions. Type of experiment: functional. The following applies: 360 h, read-out: GI.
Experiment [17] has as its system Brassica juncea. Description: Post-emergence herbicidal activity against Brassica juncea seedlings assessed as plant growth inhibition at 150 g ai/ha measured 15 days after compound treatment under greenhouse conditions. The format is functional. The settings on record: 360 h, read-out: GI.
The test system of experiment [18] is Digitaria sanguinalis. Description: Post-emergence herbicidal activity against Digitaria sanguinalis (hairy crabgrass) seedlings assessed as plant growth inhibition at 75 g ai/ha measured 15 days after compound treatment under greenhouse conditions. The format is functional. The settings on record: 360 h, read-out: GI.
Experiment [19] concerns Chenopodium album. Description: Post-emergence herbicidal activity against Chenopodium album seedlings assessed as plant growth inhibition at 150 g ai/ha measured 15 days after compound treatment under greenhouse conditions. Type of experiment: functional. The following applies: 360 h, read-out: GI.

What is called pKi is the Ki on a negative log10 scale, so that one unit is a factor of ten.

pKi: −log10 of the molar value.

For the compound `COC(=O)Sc1nc2cc(-n3nc(C)n(C(F)F)c3=O)c(F)cc2s1`, the inhibition of growth at 37.5 g/ha with Brassica juncea [1] was under 50%; with Echinochloa crus-galli [4], 50%; with Amaranthus retroflexus [8], under 50%; in the experiment with Digitaria sanguinalis [11] it was 60%; with Chenopodium album [14], 50%; in the experiment with Setaria faberi [16], under 50%. Also, the inhibition of growth at 75 g/ha in the experiment with Chenopodium album [2] is at least 90%; with Brassica juncea [7], 50%; with Echinochloa crus-galli [10], 50%; in the experiment with Setaria faberi [12] it was under 50%; with Amaranthus retroflexus [13], 50%; in the experiment on Digitaria sanguinalis [18] it was 60%. Further, the inhibition of growth at 150 g/ha in the experiment on Setaria faberi [3] is under 50%; in the experiment on Echinochloa crus-galli [6], 60%; in the experiment with Amaranthus retroflexus [9] it was at least 90%; with Digitaria sanguinalis [15], 60%; in the experiment on Brassica juncea [17], at least 90%; in the experiment with Chenopodium album [19], at least 90%. For the same compound, the pKi in experiment [5] was 6.54.

For the compound `COC(=O)CSc1nc2cc(-n3nc(C)n(C(F)F)c3=O)c(F)cc2s1`, the inhibition of growth at 37.5 g/ha was 60% with Brassica juncea [1]; 60% in the experiment with Echinochloa crus-galli [4]; at least 90% in the experiment with Amaranthus retroflexus [8]; under 50% in the experiment on Digitaria sanguinalis [11]; under 50% in the experiment with Chenopodium album [14]; 60% with Setaria faberi [16]. For the same compound, the inhibition of growth at 75 g/ha in the experiment on Chenopodium album [2] was at least 90%; in the experiment with Brassica juncea [7], at least 90%; with Echinochloa crus-galli [10] it was 60%; in the experiment on Setaria faberi [12], 60%; with Amaranthus retroflexus [13] it was at least 90%; with Digitaria sanguinalis [18] it was under 50%. The inhibition of growth at 150 g/ha with Setaria faberi [3], with Echinochloa crus-galli [6], in the experiment on Amaranthus retroflexus [9], with Digitaria sanguinalis [15], in the experiment on Brassica juncea [17] and in the experiment on Chenopodium album [19] was at least 90% in each case. For the same compound, the pKi in experiment [5] is 5.97.

These data come from ChEMBL document CHEMBL3046000, “Design and synthesis of 1-(benzothiazol-5-yl)-1H-1,2,4-triazol-5-ones as protoporphyrinogen oxidase inhibitors” (Bioorg Med Chem, 2013).
